From patent publication US20230257419A1, “PHARMACEUTICAL COMPOSITION FOR PREVENTING OR TREATING A PERIODONTAL DISEASE OR DISLOCATED TRAUMATIC TOOTH” (HYSENSBIO, priority 2020, published 2023)

What was measured:
BSP gene = experiment: BSP mRNA expression by real-time PCR in human periodontal ligament cells; assay type: cell-based; details: average of three experiments
Protocol: (§1) Specifically, all experiments were performed with the consent of the patient after obtaining approval from the Hospital's Institutional Review Board, a periodontal ligament tissue attached to the root of a wisdom tooth was isolated and cut into double-sided pieces, placed in a 60 mm dish, and covered with a cover slip, and then cultured in Dulbecco's degenerated Eagle's Medium.
(§2) Total RNA from human periodontal ligament cells was isolated using a TRIzol reagent. cDNA was synthesized using 2 μg of total RNA, 1 μl of reverse transcriptase, and 0.5 μg of oligo (dT). cDNA of synthesized human periodontal ligament cells was used for a real-time polymerase chain reaction using primers shown in Table 2 below. A real-time polymerase chain reaction was performed in ABI PRISM 7500 sequence detection system (Applied Biosystems) using SYBR GREEN PCR Master Mix (Takara, Japan). The real-time polymerase chain reaction was performed at 94° C., 1 min; 95° C., 15 sec-60° C., 34 sec was performed under the condition of repeating 40 cycles. Results were analyzed using a comparative cycle threshold (CT) method.

CAP gene = experiment: CAP mRNA expression by real-time PCR in human periodontal ligament cells; assay type: cell-based; details: average of three experiments
Protocol: as §1, §2

periostin gene = experiment: Periostin mRNA expression by real-time PCR in human periodontal ligament cells; assay type: cell-based; details: average of three experiments
Protocol: as §1, §2

[1] = system: three-wall periodontal defect; experiment: Periodontium regeneration in periodontium damage animal model, histological evaluation; assay type: in vivo; details: beagle dog, collagen sponge containing 50 μg peptide, 3 months
Protocol: Four beagle dogs (12-16 kg; […]) were anesthetized by inhalation of Geloran, intravenously injected with Zoletil (5 mg/kg) and Xylazine (0.2-0.5 mg/kg), and then treated with Lidocaine (Lidocaine 2% with 1:80,000 epinephrine). The 4th premolar tooth and the 2nd molar tooth were extracted from the mandible of the beagle dog, and then the dog waited for healing for 3 months. After 3 months of healing, three-wall periodontal defect was induced on distal and mesial surfaces of a 1st molar tooth. Then, a periodontal damage of 4×4×4 mm was formed with the buccal and distal bones remaining around the tooth root, the root alveolar bone is securely removed, tooth root planing was performed using a curette, and then an incisor groove was formed using a ½ round bur. Next, an experimental group was transplanted with a collagen sponge (a peptide solution obtained by dissolving a peptide in physiological saline at a concentration of 1 μg/μl was prepared, 50 μl of a peptide solution was added to the EP tube, and then was soaked for 5 minutes to prepare the collagen sponge) including a 50 μl of peptide (SEQ ID NO: 16 of group 2) prepared in Example 1 at a defect region, After the defect, only a negative control (NC) without any treatment and a collagen sponge (prepared by soaking a collagen sponge in 50 μl of physiological saline for 5 minutes) was placed on the inner bone wall of a bone defect and a transplanted negative control (NC+Plug) was sacrificed 3 months later, and histological evaluation was performed. After 3 months, a beagle dog was sacrificed by administering an excessive amount (90-120 mg/kg) of pentobarbital. A tooth of the beagle dog was extracted, fixed with 10% formalin, and then calcium was removed by adding 5% formic acid, molded, and embedded in paraffin, to obtain a tissue section with a thickness of 5 μm. The obtained tissue section was stained with hematoxylin and eosin or collagen stained (Masson's Trichrome Staining) to confirm periodontal ligament regeneration and then analyzed using by an optical microscope equipped with a digital camera (LEICA ICC50 camera, Germany). After extraction of a 4th premolar tooth and a 2nd molar tooth from the mandibles of 4 beagle dogs, they waited for 3 months to heal, and After 3 months of healing, the 3-mural periodontal defect was induced in distal and mesial surfaces of a 1st molar tooth. Then, periodontium damage of 4×4×4 mm was formed with the buccal and distal bones remaining around the tooth root, the root alveolar bone is securely removed, tooth root planing was performed using a curette, and then an incisor groove was formed. Next, the experimental group transplanted a collagen sponge containing 50 μg of the peptide (SEQ ID NO: 16) of Example 1 to the defect region, and after the defect, a negative control (NC) without any treatment and control (NC+Plug) transplanted by placing only a collagen sponge on the inner bone wall of the bone defect was sacrificed 3 months later for histological evaluation.

[2] = Masson's trichrome stain, FIG. 6

Row | Substance | BSP gene expression, relative mRNA expression level compared to the control, Average (BSP gene) | CAP gene expression, relative mRNA expression level compared to the control, Average (CAP gene) | PERIOSTIN gene expression, relative mRNA expression level compared to the control, Average (periostin gene) | incorporation of new periodontal ligament fiber bundle into alveolar bone and cementum [1, 2] | new cementum-like tissue formation [1, 2] | new periodontal ligament-like tissue formation [1, 2] | incorporation of new periodontal ligament into alveolar bone and cementum ([1]; hematoxylin/eosin, FIG. 5) | new cementum-like tissue formation ([1]; hematoxylin/eosin, FIG. 5) | new periodontal ligament-like tissue formation ([1]; hematoxylin/eosin, FIG. 5)
1 | 12 (KYKQRRRSYK) [compound 12] | 2.211 | 2.211 | 2.211 | – | – | – | – | – | –
2 | 11 (KYKQRRKSYK) [compound 11] | 2.362 | 2.362 | 2.362 | – | – | – | – | – | –
3 | 8 (KYKQKRRNYK) [compound 8] | 2.021 | 2.021 | 2.021 | – | – | – | – | – | –
4 | 13 (KYKQKKKSYK) [compound 13] | 2.525 | 2.525 | 2.525 | – | – | – | – | – | –
5 | 10 (KYKQRKRSYK) [compound 10] | 2.811 | 2.811 | 2.811 | – | – | – | – | – | –
6 | 4 (KYKQRRRNYK) [compound 4] | 2.702 | 2.702 | 2.702 | – | – | – | – | – | –
7 | 2 (KYKQRKRNYK) [compound 2] | 2.361 | 2.361 | 2.361 | – | – | – | – | – | –
8 | 5 (KYKQKKKNYK) [compound 5] | 2.67 | 2.67 | 2.67 | – | – | – | – | – | –
9 | 9 (KYKQRKKSYK) [compound 9] | 2.211 | 2.211 | 2.211 | – | – | – | – | – | –
10 | 14 (KYKQKRKSYK) [compound 14] | 2.836 | 2.836 | 2.836 | – | – | – | – | – | –
11 | 16 (KYKQKRRSYK) [compound 16] | 2.606 | 2.467 | 2.403 | – | – | – | – | – | –
12 | KYKQKRRSYK [SEQ ID NO: 16, Group 2 peptide, 8th amino acid is serine (S)] | – | – | – | A new periodontal ligament fiber bundle was vertically incorporated in the newly formed alveolar bone and cementum | new cementum-like tissue was observed along a tooth root surface | new periodontal ligament-like tissue formation was also observed | New periodontal ligament was incorporated in the newly formed alveolar bone and cementum | new cementum-like tissue was observed along a tooth root surface | new periodontal ligament-like tissue formation was also observed
13 | 15 (KYKQKKRSYK) [compound 15] | 2.620 | 2.620 | 2.620 | – | – | – | – | – | –
14 | 1 (KYKQRKKNYK) [compound 1] | 2.092 | 2.092 | 2.092 | – | – | – | – | – | –
15 | 6 (KYKQKRKNYK) [compound 6] | 2.705 | 2.705 | 2.705 | – | – | – | – | – | –
16 | 7 (KYKQKKRNYK) [compound 7] | 2.215 | 2.451 | 2.329 | – | – | – | – | – | –
17 | 3 (KYKQRRKNYK) [compound 3] | 2.572 | 2.572 | 2.572 | – | – | – | – | – | –
